According to the NIST ThermoML archive (doi:10.1016/j.jct.2006.09.017):

What was measured:
[1] = xn = mol fraction of the nth substance listed; conditions: 101 kPa, Liquid
[2] = 101.33 kPa, Liquid

CN1CCN(C)C1=O [1,3-dimethyl-2-imidazolidinone] + CCCCCCCCO
mass density [kg/m3], [1]
Conditions | x1 = 0.09996 | x1 = 0.2 | x1 = 0.3002 | x1 = 0.4001 | x1 = 0.5 | x1 = 0.599 | x1 = 0.7002 | x1 = 0.7996 | x1 = 0.8999
283.15 K | 848.3 | 865.7 | 884.37 | 904.35 | 925.89 | 948.94 | 974.48 | 1001.78 | 1031.95
298.15 K | 837.74 | 854.88 | 873.28 | 893.01 | 914.29 | 937.08 | 962.3 | 989.29 | 1019.12
313.15 K | 827.05 | 843.97 | 862.14 | 881.63 | 902.66 | 925.21 | 950.12 | 976.81 | 1006.31

CN1CCN(C)C1=O [1,3-dimethyl-2-imidazolidinone] + CCCO
mass density [kg/m3], [1]
Conditions | x1 = 0.09998 | x1 = 0.2 | x1 = 0.2999 | x1 = 0.4001 | x1 = 0.4998 | x1 = 0.6001 | x1 = 0.7 | x1 = 0.7999 | x1 = 0.9
283.15 K | 847.83 | 880.77 | 910.83 | 938.4 | 963.7 | 987.2 | 1008.86 | 1028.91 | 1047.62
298.15 K | 835.55 | 868.25 | 898.06 | 925.54 | 950.74 | 974.16 | 995.74 | 1015.73 | 1034.43
313.15 K | 823.05 | 855.56 | 885.22 | 912.63 | 937.7 | 961.08 | 982.62 | 1002.67 | 1021.31

CCCCCCCCO [octan-1-ol]
[2]
Conditions | mass density [kg/m3]
283.15 K | 832.06
298.15 K | 821.72
313.15 K | 811.21

CCO [ethanol]
[2]
Conditions | mass density [kg/m3]
283.15 K | 797.88
298.15 K | 785.13
313.15 K | 772.05

CCCCO [butan-1-ol]
[2]
Conditions | mass density [kg/m3]
283.15 K | 817.18
298.15 K | 805.79
313.15 K | 794.18

CN1CCN(C)C1=O [1,3-dimethyl-2-imidazolidinone] + CCCCO
mass density [kg/m3], [1]
Conditions | x1 = 0.09992 | x1 = 0.2 | x1 = 0.3 | x1 = 0.4002 | x1 = 0.5 | x1 = 0.6 | x1 = 0.7002 | x1 = 0.7999 | x1 = 0.9001
283.15 K | 846.49 | 874.68 | 901.72 | 927.79 | 952.85 | 976.95 | 1000.25 | 1022.61 | 1044.18
298.15 K | 834.78 | 862.67 | 889.49 | 915.33 | 940.22 | 964.19 | 987.34 | 1009.57 | 1031.03
313.15 K | 822.87 | 850.54 | 877.11 | 902.78 | 927.48 | 951.32 | 974.35 | 996.45 | 1017.84

CN1CCN(C)C1=O [1,3-dimethyl-2-imidazolidinone] + CCCCCCO
mass density [kg/m3], [1]
Conditions | x1 = 0.1 | x1 = 0.2 | x1 = 0.3 | x1 = 0.4001 | x1 = 0.5 | x1 = 0.6001 | x1 = 0.7002 | x1 = 0.7998 | x1 = 0.9001
283.15 K | 847.11 | 868.74 | 890.96 | 913.77 | 937.21 | 961.32 | 986.12 | 1011.48 | 1037.74
298.15 K | 836.15 | 857.49 | 879.43 | 901.99 | 925.23 | 949.12 | 973.62 | 998.72 | 1024.71
313.15 K | 825.02 | 846.12 | 867.81 | 890.13 | 913.07 | 936.71 | 961.04 | 985.96 | 1011.88

CO [methanol]
[2]
Conditions | mass density [kg/m3]
283.15 K | 800.62
298.15 K | 786.56
313.15 K | 772.32

CCCO [propan-1-ol]
[2]
Conditions | mass density [kg/m3]
283.15 K | 811.54
298.15 K | 799.59
313.15 K | 787.36

CN1CCN(C)C1=O [1,3-dimethyl-2-imidazolidinone] + CO
mass density [kg/m3], [1]
Conditions | x1 = 0.09987 | x1 = 0.1999 | x1 = 0.2999 | x1 = 0.4 | x1 = 0.4985 | x1 = 0.6002 | x1 = 0.7001 | x1 = 0.8002 | x1 = 0.9003
283.15 K | 866.6 | 914.65 | 950.88 | 978.91 | 1000.83 | 1019.06 | 1033.62 | 1045.88 | 1056.16
298.15 K | 852.53 | 900.56 | 936.99 | 965.04 | 987.09 | 1005.48 | 1020.04 | 1032.47 | 1042.89
313.15 K | 838.25 | 886.37 | 922.85 | 951.05 | 973.2 | 991.72 | 1006.43 | 1019.04 | 1029.49

CCCCCCCO [heptan-1-ol]
[2]
Conditions | mass density [kg/m3]
283.15 K | 829.27
298.15 K | 818.78
313.15 K | 808.11

CCCCCCO [hexan-1-ol]
[2]
Conditions | mass density [kg/m3]
283.15 K | 826.03
298.15 K | 815.34
313.15 K | 804.46

CN1CCN(C)C1=O [1,3-dimethyl-2-imidazolidinone]
[2]
Conditions | mass density [kg/m3]
283.15 K | 1064.86
298.15 K | 1051.59
313.15 K | 1038.38

CCCCCO [pentan-1-ol]
[2]
Conditions | mass density [kg/m3]
283.15 K | 821.81
298.15 K | 810.88
313.15 K | 799.71

CN1CCN(C)C1=O [1,3-dimethyl-2-imidazolidinone] + CCO
mass density [kg/m3], [1]
Conditions | x1 = 0.09998 | x1 = 0.2 | x1 = 0.3001 | x1 = 0.3999 | x1 = 0.4996 | x1 = 0.6002 | x1 = 0.6999 | x1 = 0.8 | x1 = 0.8994
283.15 K | 846.13 | 886.41 | 920.6 | 949.96 | 975.63 | 998.13 | 1017.79 | 1035.31 | 1050.79
298.15 K | 833.1 | 873.26 | 907.41 | 936.72 | 962.36 | 984.83 | 1004.56 | 1022.19 | 1037.59
313.15 K | 819.85 | 859.85 | 893.96 | 923.29 | 948.92 | 971.48 | 991.29 | 1008.94 | 1024.41

CN1CCN(C)C1=O [1,3-dimethyl-2-imidazolidinone] + CCCCCCCO
mass density [kg/m3], [1]
Conditions | x1 = 0.09996 | x1 = 0.1999 | x1 = 0.3001 | x1 = 0.4 | x1 = 0.5 | x1 = 0.6001 | x1 = 0.7 | x1 = 0.8001 | x1 = 0.8992
283.15 K | 847.64 | 866.92 | 887.24 | 908.58 | 931.08 | 954.87 | 979.95 | 1006.61 | 1034.61
298.15 K | 836.89 | 855.89 | 875.96 | 897.05 | 919.28 | 942.82 | 967.68 | 994.04 | 1021.77
313.15 K | 826.03 | 844.8 | 864.62 | 885.45 | 907.49 | 930.78 | 955.41 | 981.47 | 1009.02

CN1CCN(C)C1=O [1,3-dimethyl-2-imidazolidinone] + CCCCCO
mass density [kg/m3], [1]
Conditions | x1 = 0.1 | x1 = 0.2 | x1 = 0.3 | x1 = 0.4001 | x1 = 0.5001 | x1 = 0.6001 | x1 = 0.7 | x1 = 0.8002 | x1 = 0.9
283.15 K | 846.41 | 870.95 | 895.43 | 919.88 | 944.23 | 968.5 | 992.7 | 1016.92 | 1040.93
298.15 K | 835.16 | 859.39 | 883.62 | 907.84 | 931.97 | 956.02 | 980.01 | 1004.03 | 1027.87
313.15 K | 823.75 | 847.72 | 871.72 | 895.74 | 919.68 | 943.56 | 967.36 | 991.25 | 1014.87
